The results in this text go back to US4496551A (priority 1983, dated 1985).

The subject of one data set is Rhizoctonia solani. Description: rice sheath blight control on rice seedlings. The following applies: Rhizoctonia solani, 168 h, 7 days. The format is in vivo. In outline: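 Rice seedlings sprayed to run-off with 100 ppm compound suspension (6% acetone, 250 ppm surfactant), then inoculated next day with bran/mycelium of Rhizoctonia solani. After 7 days in a growth room, sheath blight disease was rated.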

Another data set relates to cucumber seedlings. Description: phytotoxicity on cucumber seedlings. The format is in vivo. Set-up: key: G: growth reduction; H: hormonal effects. The following applies: 100 ppm.
A further data set relates to Helminthosporium maydis. Description: southern corn leaf blight control on corn seedlings. The following applies: Bipolaris maydis, 168 h. The format is in vivo. The method in brief:
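Corn seedlings were sprayed to run-off with 100 ppm compound (6% acetone, 250 ppm TREM 014), inoculated next day with H. maydis spores, then kept 24 h at 20° in saturated humidity and 7 more days in a growth room. Lesions were rated as disease score.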

A further data set relates to Erysiphe cichoracearum. Description: cucumber powdery mildew control on cucumber seedlings. Type of data set: in vivo. The following applies: Golovinomyces cichoracearum, 168 h, 7 days. In outline: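 Compounds at 100 ppm in water with 6% acetone and 250 ppm TREM 014 surfactant, sprayed to run-off on cucumber seedlings. Inoculation with Erysiphe cichoracearum spores the following day; disease rated after 7 days in a growth room against untreated plants.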

Another data set deals with Venturia inaequalis. Description: apple scab control on apple seedlings. As to conditions: Venturia inaequalis; 100 ppm. The format is in vivo. The method in brief:
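Apple seedlings sprayed to run-off with 100 ppm compound suspension (6% acetone, 250 ppm TREM 014 surfactant). Inoculated next day with Venturia inaequalis spores; 24 hours at 20° in saturated humidity, then 10-12 days in growth room. Scab lesions compared with untreated plants.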

The test system of data set [1] is Puccinia recondita var. tritici. Description: wheat leaf rust control on wheat seedlings. Type of data set: in vivo. The following applies: 100 ppm, sprayed day before inoculation. The method in brief: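 Compounds at 100 ppm (6% acetone, 250 ppm polyhydric alcohol ester surfactant in water) sprayed to run-off on wheat seedlings; inoculated next day with P. recondita spores. Kept 24 h at saturated humidity, 20°, then 7 days in growth room before rust pustule rating.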

The next data set concerns Pyricularia oryzae. Nature of the data set: whole plant or invertebrate. As to conditions: 168 h, read-out: % Control of Rice Blast. The format is in vivo.
For another data set, the system named is Cercospora arachidicola. Nature of the data set: peanut early leafspot control on peanut seedlings. Type of data set: in vivo. The following applies: Mycosphaerella arachidis, 336 h. The method in brief: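 Compounds dissolved in acetone (6% of final volume) and suspended at 100 ppm in water with 250 ppm TREM 014, sprayed to run-off on seedlings. Cercospora arachidicola inoculated next day; 24 h saturated humidity at 27°, then 14 days growth room before disease and leafspot rating.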

The subject of a further data set is Phytophthora infestans. Nature of the data set: whole plant or invertebrate. As to conditions: Phytophthora infestans, in Solanum lycopersicum, 168 h, read-out: % Control of Tomato Late Blight. The format is in vivo.
For data set [2], the system named is Pythium aphanadermatum. Nature of the data set: Pythium control on coated cotton seeds. The format is in vivo. As to conditions: 168 h. The text has this: Several compounds of the previous examples were incorporated into a proprietary formulation and used to coat cotton seeds at a rate of 2 gm/kg seed. After being thoroughly coated, the seeds were allowed to air dry at room temperature. The cotton seeds were then planted into soil amended with the fungus Pythium aphanadermatum, sand, and corn meal at a rate sufficient to kill most untreated seeds. The seeds were held at room temperature for 1 week, after which time disease ratings were made.

Data set [3] deals with Pythium aphanadermatum. Description: Pythium control on coated corn seeds. The format is in vivo. The following applies: 504 h, 2 gm/kg seed, 49° F. 2 weeks then 70° F. 1 week. As for the experimental part: Several compounds of the previous examples were incorporated into a proprietary formulation and used to coat corn seeds at a rate of 2 gm/kg seed. After being thoroughly coated, the seeds were allowed to air dry at room temperature. The seeds were then planted into soil amended with a mixture of the fungus Pythium aphanadermatum, sand, and corn meal at a rate sufficient to kill most untreated seeds. The seeds were held at 49° F. for 2 weeks and then at 70° F. for 1 additional week. After this time disease ratings were made.

The subject of the next data set is Erysiphe graminis. Description: barley powdery mildew control on barley seedlings. Type of data set: in vivo. As to conditions: Blumeria graminis, 168 h; 100 ppm, 7 days. As to the method: Several compounds of the previous examples were again dissolved in acetone in an amount equal to 6% of the final volume and then suspended at a concentration of 100 ppm in purified water containing 250 ppm of the surfactant TREM 014 (polyhydric alcohol esters). This suspension was sprayed to the point of run-off on barley seedlings. The following day, the plants were inoculated with a spore suspension of the fungus Erysiphe graminis, causal agent of barley powdery mildew, and incubated in a growth room for 7 days. Disease ratings were then made. Treated plants had little or no powdery mildew in contrast to untreated plants which were covered with powdery mildew.

In a further data set the test system is 5 Phytophthora species. Type of data set: cell-based. As to conditions: 200.0 ppm in agar, 22° C., 6 days; controlled = radial growth 1 mm or less.

With `C[Si](C)(Cn1ccnc1)c1ccccc1C(F)(F)F` [(1H-Imidazol-1-ylmethyl)dimethyl(2-trifluoromethylphenyl)silane], the pest or weed control at 100 ppm was 80% with Rhizoctonia solani; 90% with Helminthosporium maydis; 100% in the data set on Erysiphe cichoracearum; 0% in the data set with Venturia inaequalis; 0% in [1]; 0% with Pyricularia oryzae. Moreover, the pest or weed control at 100 ppm in the data set with Cercospora arachidicola and in the data set on Phytophthora infestans was 0% each time. The “Phytotoxicity (growth reduction or hormonal effects)” value in the data set with cucumber seedlings is on record as “G”.

With `C[Si](C)(Cn1ccnc1)c1cc(Cl)cc(Cl)c1` [(3,5-Dichlorophenyl)dimethyl(1H-imidazol-1-ylmethyl)silane], the pest or weed control at 100 ppm was 90% in the data set with Rhizoctonia solani; 0% with Helminthosporium maydis; 100% in the data set on Erysiphe cichoracearum; 50% with Venturia inaequalis; 0% in data set [1]; 0% in the data set with Pyricularia oryzae. In addition, the pest or weed control at 100 ppm in the data set with Cercospora arachidicola and in the data set on Phytophthora infestans was 0% each time. Also, in the data set with cucumber seedlings, the “Phytotoxicity (growth reduction or hormonal effects)” value was “G”.

With `Cc1ccc([Si](C)(C)Cn2ccnc2)cc1` [(1H-Imidazol-1-ylmethyl)dimethyl(4-methylphenyl)silane], the pest or weed control at 2000 mg/kg came out at 0% in the data set on Pythium aphanadermatum [2] (2 gm/kg seed, 1 week) and 30% in the data set with Pythium aphanadermatum [3]. Also, the pest or weed control at 100 ppm amounted to 0% with Rhizoctonia solani; 0% with Helminthosporium maydis; 100% in the data set on Erysiphe cichoracearum; 0% in the data set with Venturia inaequalis; 0% in [1]; 0% in the data set on Pyricularia oryzae. Besides, the pest or weed control at 100 ppm with Cercospora arachidicola and in the data set with Phytophthora infestans was 0% throughout. The “Phytotoxicity (growth reduction or hormonal effects)” value with cucumber seedlings was “G”.

As for `C[Si](Cn1ccnc1)(c1ccc(Cl)cc1)c1ccc(Cl)cc1` [bis(4-Chlorophenyl)(1H-imidazol-1-ylmethyl)methylsilane], the pest or weed control at 100 ppm with Erysiphe graminis turned out to be 100%; in the data set on Rhizoctonia solani, 0%; in the data set with Helminthosporium maydis it was 60%; in the data set on Erysiphe cichoracearum, 100%; in the data set with Venturia inaequalis, 0%; in [1], 0%. In addition, the pest or weed control at 100 ppm in the data set with Pyricularia oryzae, with Cercospora arachidicola and with Phytophthora infestans was 0% in each case.

For the molecule `C[Si](C)(Cn1ccnc1)c1ccc(Oc2ccc(Cl)cc2)cc1` [[4-(4-Chlorophenoxy)phenyl]dimethyl(1H-imidazol-1-ylmethyl)silane], the pest or weed control at 100 ppm in the data set with Rhizoctonia solani worked out at 70%; in the data set on Helminthosporium maydis, 0%; in the data set with Erysiphe cichoracearum, 100%; with Venturia inaequalis, 0%; in data set [1] it was 90%; in the data set with Pyricularia oryzae, 100%. For the same molecule, the pest or weed control at 100 ppm in the data set on Cercospora arachidicola and in the data set on Phytophthora infestans was 0% throughout. The “No. of 5 Phytophthora species controlled in vitro” value in the data set with 5 Phytophthora species is on record as 0. Moreover, the pest or weed control at 2000 mg/kg in the data set with Pythium aphanadermatum [3] was 0%.

As for `COc1ccccc1[Si](C)(C)Cn1ccnc1` [(1H-Imidazol-1-ylmethyl)(2-methoxyphenyl)dimethylsilane], the pest or weed control at 100 ppm in the data set on Rhizoctonia solani came out at 90%; in the data set on Helminthosporium maydis, 0%; in the data set with Erysiphe cichoracearum it was 100%; with Venturia inaequalis, 60%; in [1] it was 0%; in the data set on Pyricularia oryzae it was 0%. The pest or weed control at 100 ppm in the data set on Cercospora arachidicola and in the data set on Phytophthora infestans was 0% throughout. Further, in the data set with cucumber seedlings, the “Phytotoxicity (growth reduction or hormonal effects)” value is reported as “G”.

Regarding `C[Si](Cn1ccnc1)(c1ccc(F)cc1)c1ccc(F)cc1` [bis(4-Fluorophenyl)(1H-imidazol-1-ylmethyl)methylsilane], the pest or weed control at 100 ppm in the data set with Rhizoctonia solani was 90%; in the data set with Helminthosporium maydis, 60%; in the data set on Erysiphe cichoracearum it was 100%; in the data set on Venturia inaequalis, 100%; in data set [1], 100%; with Pyricularia oryzae, 0%. Moreover, the pest or weed control at 100 ppm in the data set on Cercospora arachidicola worked out at 100%; in the data set with Phytophthora infestans it was 0%. Besides, the “No. of 5 Phytophthora species controlled in vitro” value in the data set with 5 Phytophthora species is 0.

As for `C[Si](C)(Cn1ccnc1)c1ccc(OC(F)(F)F)cc1` [Dimethyl(1H-imidazol-1-ylmethyl)(4-trifluoromethoxyphenyl)silane], the pest or weed control at 100 ppm came to 0% in the data set with Rhizoctonia solani; 0% in the data set on Helminthosporium maydis; 100% with Erysiphe cichoracearum; 50% in the data set on Venturia inaequalis; 100% in data set [1]; 90% in the data set with Pyricularia oryzae. Besides, the pest or weed control at 100 ppm in the data set on Cercospora arachidicola was found to be 90%; in the data set with Phytophthora infestans it was 0%. In addition, in the data set with cucumber seedlings, the “Phytotoxicity (growth reduction or hormonal effects)” value is “G”.

As to `C[Si](C)(Cn1ccnc1)c1cccc2ccccc12` [(1H-Imidazol-1-ylmethyl)dimethyl(1-naphthalenyl)silane], the pest or weed control at 100 ppm worked out at 0% in the data set on Erysiphe graminis; 0% in the data set with Rhizoctonia solani; 0% in the data set with Helminthosporium maydis; 100% with Erysiphe cichoracearum; 40% in the data set on Venturia inaequalis; 0% in [1]. Also, the pest or weed control at 100 ppm in the data set with Pyricularia oryzae, in the data set on Cercospora arachidicola and in the data set with Phytophthora infestans was 0% each time. In the data set with Pythium aphanadermatum [3], this molecule registered a pest or weed control at 2000 mg/kg of 27%.

For `C[Si](C)(Cn1ccnc1)c1ccc(Cl)c(Cl)c1` [(3,4-Dichlorophenyl)(1H-imidazol-1-ylmethyl)dimethylsilane], the pest or weed control at 100 ppm in the data set on Erysiphe graminis came out at 80%; in the data set with Rhizoctonia solani, 0%; in the data set on Helminthosporium maydis, 70%; in the data set on Erysiphe cichoracearum, 100%; in the data set with Venturia inaequalis, 80%; in data set [1] it was 0%. The pest or weed control at 100 ppm in the data set with Pyricularia oryzae, in the data set with Cercospora arachidicola and with Phytophthora infestans was 0% each time. In the data set on Pythium aphanadermatum [2] (0.5 gm/kg seed), this molecule showed a pest or weed control at 500 mg/kg of 15%. This molecule yielded a pest or weed control at 2000 mg/kg in the data set on Pythium aphanadermatum [3] of 30%.

Take `COc1ccc([Si](C)(C)Cn2ccnc2)cc1` [Dimethyl(1H-imidazol-1-ylmethyl)(4-methoxyphenyl)silane]: the pest or weed control at 100 ppm in the data set on Erysiphe graminis is 100%; in the data set on Rhizoctonia solani, 0%; with Helminthosporium maydis it was 0%; in the data set with Erysiphe cichoracearum, 100%; in the data set with Venturia inaequalis it was 0%; in [1], 60%. For the same molecule, the pest or weed control at 100 ppm in the data set with Pyricularia oryzae, in the data set on Cercospora arachidicola and with Phytophthora infestans was 0% each time. Further, the “No. of 5 Phytophthora species controlled in vitro” value in the data set with 5 Phytophthora species worked out at 0.
